Test results taken from PMC5467694 (European journal of pharmacology, 2009).

What was measured:
recombinant human Neu2 = recombinant human Neu2 (Homo sapiens, UniProt Q9Y3R4); experiment: NA inhibition assay, recombinant human Neu2; assay type: biochemical
[1] = Steady-state exposure in adults, standard regimen; assay type: in vivo, human; conditions: 75 mg twice daily for 5 days
recombinant human Neu3 = biological target: T1, recombinant human Neu3 (Homo sapiens, UniProt Q9UQ49); experiment: NA inhibition assay, recombinant human Neu3; assay type: biochemical
T1 sequence (Q9UQ49 1-428): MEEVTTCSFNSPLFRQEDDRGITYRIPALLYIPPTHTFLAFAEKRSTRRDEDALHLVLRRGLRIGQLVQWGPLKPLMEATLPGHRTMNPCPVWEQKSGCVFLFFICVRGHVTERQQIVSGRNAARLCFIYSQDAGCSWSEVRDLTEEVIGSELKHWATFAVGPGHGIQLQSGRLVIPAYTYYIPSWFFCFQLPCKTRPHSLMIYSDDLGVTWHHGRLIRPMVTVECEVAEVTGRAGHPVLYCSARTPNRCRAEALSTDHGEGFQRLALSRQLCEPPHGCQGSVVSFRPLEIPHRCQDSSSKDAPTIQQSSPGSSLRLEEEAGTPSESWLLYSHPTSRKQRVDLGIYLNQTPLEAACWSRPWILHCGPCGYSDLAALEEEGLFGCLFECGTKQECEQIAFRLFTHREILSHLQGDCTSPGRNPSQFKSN

[2] = tested on: recombinant human NAs Neu1–4; experiment: NA inhibition assay, all 4 recombinant human NAs; assay type: biochemical; conditions: for partial inhibition of all 4 human NAs: concentrations higher than 1 mM; for inhibition of all 4 human NAs: up to a concentration of 1 mM
recombinant human Neu1 = recombinant human Neu1 (Homo sapiens, UniProt Q99519); experiment: NA inhibition assay, recombinant human Neu1; assay type: biochemical
[3] = tested on: panel of 155 molecular targets unrelated to NAs; experiment: Selectivity panel of 155 molecular targets unrelated to NAs; conditions: for pharmacological activity on panel targets: 3 and 30 μM, 50% cut-off for relevance; for low levels of activity, inhibition/stimulation, on eleven targets: at either 3 μM or 30 μM
recombinant human Neu4 = biological target: T2, recombinant human Neu4 (Homo sapiens, UniProt Q8WWR8); experiment: NA inhibition assay, recombinant human Neu4; assay type: biochemical
T2 sequence (Q8WWR8 1-484): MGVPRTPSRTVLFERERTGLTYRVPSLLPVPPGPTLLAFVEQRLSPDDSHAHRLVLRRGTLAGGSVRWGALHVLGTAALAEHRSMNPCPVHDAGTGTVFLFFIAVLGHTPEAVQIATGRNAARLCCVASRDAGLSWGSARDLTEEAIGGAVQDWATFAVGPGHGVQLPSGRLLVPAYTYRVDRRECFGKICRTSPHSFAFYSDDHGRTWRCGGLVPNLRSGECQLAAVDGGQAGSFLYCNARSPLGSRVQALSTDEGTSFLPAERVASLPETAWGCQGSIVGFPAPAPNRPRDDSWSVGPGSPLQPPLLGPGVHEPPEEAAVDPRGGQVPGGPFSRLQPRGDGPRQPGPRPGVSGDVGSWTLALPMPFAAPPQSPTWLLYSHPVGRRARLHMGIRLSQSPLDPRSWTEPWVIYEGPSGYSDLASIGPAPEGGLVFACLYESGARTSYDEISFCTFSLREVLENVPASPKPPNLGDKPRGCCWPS

[4] = tested on: native non-human primate brain NA activity (microsomal and membrane fractions); experiment: NA inhibition assay, non-human primate brain extracts; assay type: biochemical, Macaca fascicularis
[5] = biological target: recombinant influenza virus NA (Influenza A virus, UniProt Q30NP8); experiment: NA inhibition assay, recombinant influenza virus NA; assay type: biochemical, influenza strain A/Beijing/39/1975 H3N2
recombinant influenza virus NA, sequence (Q30NP8 whole entry, looked up): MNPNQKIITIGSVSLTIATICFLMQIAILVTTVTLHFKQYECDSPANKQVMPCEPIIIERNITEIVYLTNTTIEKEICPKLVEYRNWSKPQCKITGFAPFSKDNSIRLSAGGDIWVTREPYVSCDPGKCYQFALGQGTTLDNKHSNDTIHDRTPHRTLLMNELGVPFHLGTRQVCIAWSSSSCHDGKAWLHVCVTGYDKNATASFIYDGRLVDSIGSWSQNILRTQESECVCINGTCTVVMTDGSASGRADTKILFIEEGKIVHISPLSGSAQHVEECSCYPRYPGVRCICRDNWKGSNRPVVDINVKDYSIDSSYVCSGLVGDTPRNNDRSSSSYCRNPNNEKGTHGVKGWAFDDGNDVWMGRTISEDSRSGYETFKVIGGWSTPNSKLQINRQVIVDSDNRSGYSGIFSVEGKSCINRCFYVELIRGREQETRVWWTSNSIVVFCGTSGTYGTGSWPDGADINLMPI

[6] = biological target: recombinant α1β2γ2 GABAA receptor (Homo sapiens, UniProt P14867+P18507+P47870); experiment: Electrophysiological GABAA patch-clamp assay; assay type: cell-based
recombinant α1β2γ2 GABAA receptor, sequence (P14867 28-456): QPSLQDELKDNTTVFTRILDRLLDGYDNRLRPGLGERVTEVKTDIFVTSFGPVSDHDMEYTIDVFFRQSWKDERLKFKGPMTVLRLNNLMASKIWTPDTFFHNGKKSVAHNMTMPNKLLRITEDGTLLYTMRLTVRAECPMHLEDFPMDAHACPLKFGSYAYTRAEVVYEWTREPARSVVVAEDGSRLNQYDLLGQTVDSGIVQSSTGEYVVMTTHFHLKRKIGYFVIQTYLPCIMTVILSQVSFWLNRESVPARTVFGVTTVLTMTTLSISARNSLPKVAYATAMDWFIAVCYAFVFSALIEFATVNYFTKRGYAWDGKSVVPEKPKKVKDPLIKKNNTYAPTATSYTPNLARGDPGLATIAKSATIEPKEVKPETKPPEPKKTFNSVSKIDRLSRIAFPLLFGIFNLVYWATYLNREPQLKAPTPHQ
recombinant α1β2γ2 GABAA receptor, sequence (P47870 25-512 limits assumed): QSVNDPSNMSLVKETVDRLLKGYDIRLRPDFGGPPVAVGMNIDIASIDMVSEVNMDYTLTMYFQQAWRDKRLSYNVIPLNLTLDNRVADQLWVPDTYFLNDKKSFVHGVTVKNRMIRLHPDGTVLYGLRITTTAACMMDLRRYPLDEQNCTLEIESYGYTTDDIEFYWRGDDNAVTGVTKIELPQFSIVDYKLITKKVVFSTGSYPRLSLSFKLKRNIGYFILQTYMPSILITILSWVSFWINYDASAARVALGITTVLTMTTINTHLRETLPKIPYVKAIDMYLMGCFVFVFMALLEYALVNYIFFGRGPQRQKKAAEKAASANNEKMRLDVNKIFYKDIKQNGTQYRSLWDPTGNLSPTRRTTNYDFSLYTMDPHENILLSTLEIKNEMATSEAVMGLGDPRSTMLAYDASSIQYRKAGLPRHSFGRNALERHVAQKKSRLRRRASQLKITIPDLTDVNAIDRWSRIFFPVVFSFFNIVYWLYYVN
recombinant α1β2γ2 GABAA receptor, sequence (P18507 40-475): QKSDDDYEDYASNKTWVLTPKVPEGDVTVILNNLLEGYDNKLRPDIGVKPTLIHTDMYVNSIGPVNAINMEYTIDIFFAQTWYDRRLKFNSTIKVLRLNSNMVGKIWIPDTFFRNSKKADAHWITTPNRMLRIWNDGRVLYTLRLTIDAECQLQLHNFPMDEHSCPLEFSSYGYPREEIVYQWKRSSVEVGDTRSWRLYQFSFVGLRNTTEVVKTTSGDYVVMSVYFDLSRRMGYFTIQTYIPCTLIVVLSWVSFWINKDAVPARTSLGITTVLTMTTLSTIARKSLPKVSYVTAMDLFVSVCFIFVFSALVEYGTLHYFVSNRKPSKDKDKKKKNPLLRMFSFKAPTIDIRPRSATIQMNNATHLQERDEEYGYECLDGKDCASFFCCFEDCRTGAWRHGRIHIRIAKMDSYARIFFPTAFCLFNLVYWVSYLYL

[7] = tested on: NA activity in rat brain tissue; experiment: NA inhibition assay, rat brain-derived tissue; assay type: biochemical; conditions: concentrations up to 1 mM
[8] = tested on: Gαi- and Gαs-linked G protein-coupled receptors in whole rat brain membranes; conditions: ref Satoh et al. (2007); cited from earlier work
human Neu2 = conditions: read-out: IC50 on human Neu2; recombinant; ref Hata et al. (2008); cited from earlier work
[9] = tested on: NA activity of different viral strains; conditions: read-out: IC50 on NA activity of different viral strains; ref Hata et al. (2008); cited from earlier work
human Neu1 = conditions: read-out: IC50 on human Neu1; recombinant; ref Hata et al. (2008); cited from earlier work
human Neu4 = conditions: read-out: IC50 on human Neu4; recombinant; ref Hata et al. (2008); cited from earlier work
recombinant human NAs = conditions: concentrations up to 1 mM; ref Hata et al. (2008); cited from earlier work
human Neu3 = conditions: read-out: IC50 on human Neu3; recombinant; ref Hata et al. (2008); cited from earlier work
[10] = concentrations higher than 5 mM
[11] = concentrations higher than 1 mM
[12] = concentrations higher than 2 mM
[13] = concentrations higher than 10 mM
[14] = microsomal and membrane fractions, concentrations up to 10 mM

recombinant human Neu2, sequence (Q9Y3R4 whole entry): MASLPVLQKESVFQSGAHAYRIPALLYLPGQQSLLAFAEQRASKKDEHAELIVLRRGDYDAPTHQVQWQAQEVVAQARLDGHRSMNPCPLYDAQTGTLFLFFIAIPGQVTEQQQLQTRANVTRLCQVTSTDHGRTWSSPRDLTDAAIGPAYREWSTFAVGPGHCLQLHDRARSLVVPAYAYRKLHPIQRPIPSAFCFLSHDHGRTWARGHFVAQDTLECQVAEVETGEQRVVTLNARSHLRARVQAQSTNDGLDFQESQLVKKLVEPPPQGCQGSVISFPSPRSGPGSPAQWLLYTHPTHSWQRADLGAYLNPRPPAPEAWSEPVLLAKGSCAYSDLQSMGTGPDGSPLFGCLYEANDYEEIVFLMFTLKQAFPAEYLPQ

Structure (SMILES)	inhibitory activity on Neu2 (recombinant human Neu2; [10])	inhibitory activity on Neu2 (recombinant human Neu2; concentrations up to 5 mM)	extrapolated brain Cmax [1]	inhibitory activity on Neu3 (recombinant human Neu3; [10])	inhibitory activity on Neu3 (recombinant human Neu3; concentrations up to 5 mM)	partial inhibition of all 4 human NAs [2]	inhibition of all 4 human NAs [2]	inhibitory activity on Neu1 (recombinant human Neu1; [11])	inhibitory activity on Neu1 (recombinant human Neu1; concentrations up to 1 mM)	pharmacological activity on panel targets [3]	low levels of activity, inhibition/stimulation, on eleven targets [3]	inhibitory activity on Neu4 (recombinant human Neu4; [12])	inhibitory activity on Neu4 (recombinant human Neu4; concentrations up to 2 mM)	inhibition of non-human primate brain NA activity [4, 13]	inhibition of non-human primate brain NA activity [4, 14]	activity on GABAA in patch-clamp, on GABA and pentobarbital [6]	inhibition of NA activity in rat brain tissue [7]	effect on [35S]-GTP-γS binding [8]	also measured
CCOC(=O)C1=C[C@@H](OC(CC)CC)[C@H](NC(C)=O)[C@@H](N)C1 [OP, oseltamivir phosphate]	partial inhibition	no inhibition	~ 6.7 nM	partial inhibition	no inhibition	20–40%	no inhibition	partial inhibition	no inhibitory activity	no relevant pharmacological activity	20–41%	trend for an inhibitory activity	no inhibition	partial inhibition	no inhibition	lack of any significant, inhibitory, excitatory or modulatory activity	no inhibition	no effect	IC50 [5]: ~0.01 mM
CCC(CC)O[C@@H]1C=C(C(=O)O)C[C@H](N)[C@H]1NC(C)=O [OC, oseltamivir carboxylate]	partial inhibition	no inhibition	~ 77 nM	partial inhibition	no inhibition	20–40%	no inhibition	partial inhibition	no inhibitory activity	no relevant pharmacological activity	20–27%	trend for an inhibitory activity	no inhibition	partial inhibition	no inhibition	lack of any significant, inhibitory, excitatory or modulatory activity	no inhibition	no effect	IC50 (human Neu2): > 6 mM; IC50 [9]: 1.6 to 7.1 nM; IC50 (human Neu1): > 10 mM; IC50 (human Neu4): > 10 mM; inhibitory activity on any of the human NAs (recombinant human NAs): no or negligible inhibitory activity; IC50 (human Neu3): > 10 mM
